Here are results for three compounds from PMC4457528, “Identification of Novel Small Molecule Inhibitors of Oncogenic RET Kinase” (PLoS ONE, 2015).

Molecules are shown by their SMILES. Where two headings read alike, the source gives them in different places.

What all share (test): KinomeScan kinase panel, single concentration 10 µM
Common to all, as to format: binding

In experiment [1] the target is T1, KinomeScan kinase panel (Homo sapiens, UniProt Q9Y243).
T1 construct: purchased DiscoveRx (KinomeScan)
T1 sequence (Q9Y243 whole entry): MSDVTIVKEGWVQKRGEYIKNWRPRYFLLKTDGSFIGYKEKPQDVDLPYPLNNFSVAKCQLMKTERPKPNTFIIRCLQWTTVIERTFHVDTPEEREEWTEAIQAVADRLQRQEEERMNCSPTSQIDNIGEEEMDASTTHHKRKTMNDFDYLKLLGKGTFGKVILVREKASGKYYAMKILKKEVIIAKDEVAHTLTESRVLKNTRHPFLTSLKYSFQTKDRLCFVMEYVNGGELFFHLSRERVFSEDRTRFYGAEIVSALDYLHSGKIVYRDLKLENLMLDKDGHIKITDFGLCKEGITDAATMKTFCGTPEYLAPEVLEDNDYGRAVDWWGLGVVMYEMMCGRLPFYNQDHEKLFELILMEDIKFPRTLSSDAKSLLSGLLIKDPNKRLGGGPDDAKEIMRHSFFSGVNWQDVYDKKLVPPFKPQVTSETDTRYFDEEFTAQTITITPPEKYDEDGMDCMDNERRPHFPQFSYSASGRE
As to conditions: AKT3, 10 µM; read-out: score (%).

The target in experiment [2] is T2, KinomeScan kinase panel (Homo sapiens, UniProt P22607).
T2 construct: purchased DiscoveRx (KinomeScan)
T2 sequence (P22607 23-806): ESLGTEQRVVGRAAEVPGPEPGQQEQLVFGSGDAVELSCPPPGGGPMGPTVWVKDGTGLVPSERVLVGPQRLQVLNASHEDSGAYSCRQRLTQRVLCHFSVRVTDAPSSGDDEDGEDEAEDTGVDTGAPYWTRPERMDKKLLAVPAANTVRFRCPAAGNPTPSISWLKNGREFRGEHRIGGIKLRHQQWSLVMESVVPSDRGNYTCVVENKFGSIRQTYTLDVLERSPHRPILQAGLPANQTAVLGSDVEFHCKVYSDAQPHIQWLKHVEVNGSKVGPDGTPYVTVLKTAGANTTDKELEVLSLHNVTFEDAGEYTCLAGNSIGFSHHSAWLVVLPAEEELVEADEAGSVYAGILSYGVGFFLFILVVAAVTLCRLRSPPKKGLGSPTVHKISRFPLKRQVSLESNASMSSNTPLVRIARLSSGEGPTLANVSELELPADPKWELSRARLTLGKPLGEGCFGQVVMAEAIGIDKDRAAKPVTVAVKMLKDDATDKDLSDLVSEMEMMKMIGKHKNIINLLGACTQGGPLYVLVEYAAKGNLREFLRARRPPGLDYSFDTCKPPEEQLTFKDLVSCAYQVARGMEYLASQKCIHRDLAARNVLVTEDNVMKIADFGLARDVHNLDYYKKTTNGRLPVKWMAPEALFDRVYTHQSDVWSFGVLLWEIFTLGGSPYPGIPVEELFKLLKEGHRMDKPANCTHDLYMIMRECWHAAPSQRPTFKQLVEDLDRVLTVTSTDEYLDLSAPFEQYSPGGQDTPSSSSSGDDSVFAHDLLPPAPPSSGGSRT
As to conditions: FGFR3, 10 µM; read-out: score (%).

Experiment [3] concerns the target T3, KinomeScan kinase panel (Homo sapiens, UniProt Q9P2K8, S808G).
T3 construct: purchased DiscoveRx (KinomeScan)
As to conditions: GCN2(Kin.Dom.2.S808G), 10 µM; read-out: score (%).

For experiment [4], the target named is T4, KinomeScan kinase panel (Homo sapiens, UniProt Q07002).
T4 construct: purchased DiscoveRx (KinomeScan)
T4 sequence (Q07002 whole entry): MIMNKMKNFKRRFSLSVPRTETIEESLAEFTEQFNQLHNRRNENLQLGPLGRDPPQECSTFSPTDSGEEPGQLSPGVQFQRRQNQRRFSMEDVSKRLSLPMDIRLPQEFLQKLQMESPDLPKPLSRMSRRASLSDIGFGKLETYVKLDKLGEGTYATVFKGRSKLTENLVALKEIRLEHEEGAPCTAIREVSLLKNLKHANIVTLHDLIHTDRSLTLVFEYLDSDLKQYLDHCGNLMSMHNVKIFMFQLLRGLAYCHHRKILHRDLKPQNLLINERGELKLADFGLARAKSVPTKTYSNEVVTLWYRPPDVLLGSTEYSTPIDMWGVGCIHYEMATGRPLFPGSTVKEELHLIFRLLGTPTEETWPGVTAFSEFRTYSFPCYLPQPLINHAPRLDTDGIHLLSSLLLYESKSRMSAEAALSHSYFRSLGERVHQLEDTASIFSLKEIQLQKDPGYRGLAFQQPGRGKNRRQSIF
To be noted: PCTK3, 10 µM; read-out: score (%).

The target in experiment [5] is T5, KinomeScan kinase panel (Homo sapiens, UniProt P36888, D835H).
T5 construct: purchased DiscoveRx (KinomeScan)
T5 sequence (P36888 27-993 D835H): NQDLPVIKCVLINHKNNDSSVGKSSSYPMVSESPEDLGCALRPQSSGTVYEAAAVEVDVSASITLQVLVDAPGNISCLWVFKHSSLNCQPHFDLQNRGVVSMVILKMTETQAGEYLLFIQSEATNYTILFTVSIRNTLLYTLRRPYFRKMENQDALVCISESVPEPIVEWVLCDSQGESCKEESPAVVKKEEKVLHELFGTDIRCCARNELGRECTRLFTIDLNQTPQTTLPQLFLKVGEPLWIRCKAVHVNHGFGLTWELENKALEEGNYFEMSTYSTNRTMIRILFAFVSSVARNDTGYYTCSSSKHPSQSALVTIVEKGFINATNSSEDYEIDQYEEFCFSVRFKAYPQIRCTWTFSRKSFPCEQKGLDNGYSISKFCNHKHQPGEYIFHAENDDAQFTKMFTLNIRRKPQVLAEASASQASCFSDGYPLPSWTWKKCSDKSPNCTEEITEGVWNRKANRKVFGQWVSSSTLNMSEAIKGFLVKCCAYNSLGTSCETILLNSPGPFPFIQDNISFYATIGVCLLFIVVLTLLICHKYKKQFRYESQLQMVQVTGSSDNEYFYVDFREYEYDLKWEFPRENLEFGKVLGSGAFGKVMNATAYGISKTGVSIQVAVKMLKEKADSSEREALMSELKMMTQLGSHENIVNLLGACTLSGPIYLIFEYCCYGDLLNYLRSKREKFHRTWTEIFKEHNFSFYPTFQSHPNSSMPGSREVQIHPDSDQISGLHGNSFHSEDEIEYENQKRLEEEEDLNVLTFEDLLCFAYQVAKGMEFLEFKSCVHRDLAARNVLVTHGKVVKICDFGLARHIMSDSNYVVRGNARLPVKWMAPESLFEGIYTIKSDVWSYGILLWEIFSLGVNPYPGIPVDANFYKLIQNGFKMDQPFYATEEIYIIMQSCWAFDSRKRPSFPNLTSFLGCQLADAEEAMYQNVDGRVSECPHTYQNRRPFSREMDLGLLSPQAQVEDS
As to conditions: FLT3(D835H), 10 µM; read-out: score (%).

For experiment [6], the target named is T6, KinomeScan kinase panel (Homo sapiens, UniProt P27361).
T6 construct: purchased DiscoveRx (KinomeScan)
T6 sequence (P27361 whole entry): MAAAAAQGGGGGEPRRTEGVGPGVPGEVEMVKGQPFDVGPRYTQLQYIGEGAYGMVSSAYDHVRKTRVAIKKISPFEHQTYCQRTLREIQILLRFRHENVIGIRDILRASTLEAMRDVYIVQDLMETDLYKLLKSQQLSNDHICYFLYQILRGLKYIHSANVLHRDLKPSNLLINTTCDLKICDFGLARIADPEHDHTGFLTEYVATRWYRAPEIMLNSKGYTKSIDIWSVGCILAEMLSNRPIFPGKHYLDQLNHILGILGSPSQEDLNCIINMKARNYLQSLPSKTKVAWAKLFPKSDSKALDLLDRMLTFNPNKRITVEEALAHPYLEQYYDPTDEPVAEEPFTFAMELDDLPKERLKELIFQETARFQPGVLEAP
As to conditions: ERK1, 10 µM; read-out: score (%).

Experiment [7] concerns the target T7, KinomeScan kinase panel (Homo sapiens, UniProt Q05397).
T7 construct: purchased DiscoveRx (KinomeScan)
As to conditions: read-out: score (%).

For experiment [8], the target named is T8, KinomeScan kinase panel (Homo sapiens, UniProt Q13555).
T8 construct: purchased DiscoveRx (KinomeScan)
As to conditions: CAMK2G, 10 µM; read-out: score (%).

Experiment [9] has as its target T9, KinomeScan kinase panel (Homo sapiens, UniProt Q9UQ88).
T9 construct: purchased DiscoveRx (KinomeScan)
T9 sequence (Q9UQ88 1-783): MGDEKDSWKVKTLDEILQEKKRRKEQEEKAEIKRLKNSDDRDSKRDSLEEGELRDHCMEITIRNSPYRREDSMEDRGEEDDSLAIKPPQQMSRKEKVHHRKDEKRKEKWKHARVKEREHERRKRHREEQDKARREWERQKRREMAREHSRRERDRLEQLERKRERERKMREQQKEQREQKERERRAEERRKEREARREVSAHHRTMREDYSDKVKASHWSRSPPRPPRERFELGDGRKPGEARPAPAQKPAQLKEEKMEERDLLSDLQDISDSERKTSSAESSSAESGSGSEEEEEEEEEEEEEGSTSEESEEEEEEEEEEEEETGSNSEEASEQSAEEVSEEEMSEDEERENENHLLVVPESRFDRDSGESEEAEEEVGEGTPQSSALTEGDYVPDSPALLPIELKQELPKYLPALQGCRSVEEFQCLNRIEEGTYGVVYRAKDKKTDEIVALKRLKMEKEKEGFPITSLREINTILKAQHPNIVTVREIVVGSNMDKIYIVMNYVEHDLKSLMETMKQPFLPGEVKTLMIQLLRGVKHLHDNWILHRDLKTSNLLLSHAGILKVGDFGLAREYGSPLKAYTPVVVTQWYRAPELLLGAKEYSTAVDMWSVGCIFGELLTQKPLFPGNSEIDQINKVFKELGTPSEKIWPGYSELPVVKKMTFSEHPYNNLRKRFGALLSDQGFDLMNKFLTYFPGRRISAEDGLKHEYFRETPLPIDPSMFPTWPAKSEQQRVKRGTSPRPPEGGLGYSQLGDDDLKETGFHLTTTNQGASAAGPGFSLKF
As to conditions: CDC2L2, 10 µM; read-out: score (%).

T3 sequence (Q9P2K8 whole entry S808G): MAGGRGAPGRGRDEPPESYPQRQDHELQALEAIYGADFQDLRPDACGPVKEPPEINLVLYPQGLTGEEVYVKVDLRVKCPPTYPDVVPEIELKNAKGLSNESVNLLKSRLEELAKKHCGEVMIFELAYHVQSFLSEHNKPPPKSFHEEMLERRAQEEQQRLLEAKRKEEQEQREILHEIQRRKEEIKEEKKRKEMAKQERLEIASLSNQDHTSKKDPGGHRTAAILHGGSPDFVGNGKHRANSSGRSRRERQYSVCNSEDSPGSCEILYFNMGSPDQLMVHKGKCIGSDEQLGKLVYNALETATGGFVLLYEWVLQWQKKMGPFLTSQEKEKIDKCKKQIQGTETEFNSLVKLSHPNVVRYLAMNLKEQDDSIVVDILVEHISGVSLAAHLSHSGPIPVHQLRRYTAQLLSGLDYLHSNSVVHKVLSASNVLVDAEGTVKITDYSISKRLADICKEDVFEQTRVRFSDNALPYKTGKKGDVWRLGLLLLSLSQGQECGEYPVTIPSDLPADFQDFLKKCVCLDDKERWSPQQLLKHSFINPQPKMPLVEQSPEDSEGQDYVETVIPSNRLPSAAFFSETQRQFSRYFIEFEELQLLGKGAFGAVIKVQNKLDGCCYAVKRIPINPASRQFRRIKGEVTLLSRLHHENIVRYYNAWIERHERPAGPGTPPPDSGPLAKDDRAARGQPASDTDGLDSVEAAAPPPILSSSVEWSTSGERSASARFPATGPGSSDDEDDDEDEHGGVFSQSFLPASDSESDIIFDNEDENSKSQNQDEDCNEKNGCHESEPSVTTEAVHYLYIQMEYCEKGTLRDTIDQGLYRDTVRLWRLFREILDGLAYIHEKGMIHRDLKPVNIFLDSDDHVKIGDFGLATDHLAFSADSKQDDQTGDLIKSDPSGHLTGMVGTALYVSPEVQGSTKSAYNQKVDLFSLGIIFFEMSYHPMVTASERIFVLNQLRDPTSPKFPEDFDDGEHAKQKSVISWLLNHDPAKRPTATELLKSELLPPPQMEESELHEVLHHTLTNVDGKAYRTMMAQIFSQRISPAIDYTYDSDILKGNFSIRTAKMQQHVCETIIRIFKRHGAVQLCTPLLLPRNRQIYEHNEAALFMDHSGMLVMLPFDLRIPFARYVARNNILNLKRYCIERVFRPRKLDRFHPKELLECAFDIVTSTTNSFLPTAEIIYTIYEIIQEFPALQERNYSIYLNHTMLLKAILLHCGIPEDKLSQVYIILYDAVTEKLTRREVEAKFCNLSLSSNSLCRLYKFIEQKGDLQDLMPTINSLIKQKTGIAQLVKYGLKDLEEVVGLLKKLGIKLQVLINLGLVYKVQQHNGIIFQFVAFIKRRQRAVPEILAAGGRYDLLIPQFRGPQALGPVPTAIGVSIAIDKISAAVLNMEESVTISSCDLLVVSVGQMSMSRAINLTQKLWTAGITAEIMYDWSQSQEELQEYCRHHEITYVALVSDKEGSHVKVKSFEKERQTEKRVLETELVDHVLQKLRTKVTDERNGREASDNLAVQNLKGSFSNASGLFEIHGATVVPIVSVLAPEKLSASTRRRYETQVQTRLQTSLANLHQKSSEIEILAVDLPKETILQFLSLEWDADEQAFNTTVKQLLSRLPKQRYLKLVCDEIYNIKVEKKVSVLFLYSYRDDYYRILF
T7 sequence (Q05397 whole entry): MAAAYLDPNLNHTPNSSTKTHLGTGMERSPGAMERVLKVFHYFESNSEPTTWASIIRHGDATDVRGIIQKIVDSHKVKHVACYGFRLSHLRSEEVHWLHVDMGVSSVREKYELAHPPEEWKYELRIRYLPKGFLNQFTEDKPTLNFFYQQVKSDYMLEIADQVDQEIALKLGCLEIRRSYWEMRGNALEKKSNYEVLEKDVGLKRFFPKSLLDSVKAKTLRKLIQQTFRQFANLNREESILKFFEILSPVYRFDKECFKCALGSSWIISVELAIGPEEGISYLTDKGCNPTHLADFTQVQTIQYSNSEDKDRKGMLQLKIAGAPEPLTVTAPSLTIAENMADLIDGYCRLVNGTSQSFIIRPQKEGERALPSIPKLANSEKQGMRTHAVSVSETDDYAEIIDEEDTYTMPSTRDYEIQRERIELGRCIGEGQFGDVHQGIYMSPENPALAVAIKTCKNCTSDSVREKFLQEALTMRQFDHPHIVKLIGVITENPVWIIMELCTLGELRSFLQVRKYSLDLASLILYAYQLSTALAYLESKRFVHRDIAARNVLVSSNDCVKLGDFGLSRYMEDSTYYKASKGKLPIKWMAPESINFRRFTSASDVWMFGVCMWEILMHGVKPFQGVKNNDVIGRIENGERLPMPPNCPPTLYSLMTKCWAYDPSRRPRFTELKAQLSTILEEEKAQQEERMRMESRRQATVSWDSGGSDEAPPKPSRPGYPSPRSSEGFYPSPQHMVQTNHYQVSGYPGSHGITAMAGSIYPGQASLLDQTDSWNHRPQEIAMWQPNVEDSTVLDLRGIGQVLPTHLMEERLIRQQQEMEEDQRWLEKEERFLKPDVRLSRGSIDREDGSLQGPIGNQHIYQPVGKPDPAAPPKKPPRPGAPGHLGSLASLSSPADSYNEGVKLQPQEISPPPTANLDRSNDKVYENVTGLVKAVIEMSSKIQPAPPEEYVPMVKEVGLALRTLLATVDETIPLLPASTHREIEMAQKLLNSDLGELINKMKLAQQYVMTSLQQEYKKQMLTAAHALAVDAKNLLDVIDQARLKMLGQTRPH

As to `CCN1CCN(Cc2ccc(NC(=O)c3ccc(C)c(NC(=O)c4cncc(-c5cccs5)c4)c3)cc2C(F)(F)F)CC1` [ALW-II-41-27], the remaining binding at 10 µM on KinomeScan kinase panel [1] is 20%; at KinomeScan kinase panel [2], more than 30%; at KinomeScan kinase panel [3], 0.3%; at KinomeScan kinase panel [4] it was more than 30%; at KinomeScan kinase panel [5], 1.4%; at KinomeScan kinase panel [6] it was more than 30%. Further, the remaining binding at 10 µM on KinomeScan kinase panel [7] (FAK, 10 µM) was more than 30%; on KinomeScan kinase panel [8], more than 30%; on KinomeScan kinase panel [9], 1.8%.

For `CCN1CCN(Cc2ccc(NC(=O)c3ccc(C)c(/C=C/c4cnc5[nH]ccc5c4Cl)c3)cc2C(F)(F)F)CC1` [HG-6-63-01, (E)-3-(2-(4-chloro-1H-pyrrolo[2,3-b]pyridin-5-yl)vinyl)-N-(4-((4-ethylpiperazin-1-yl)methyl)-3-(trifluoromethyl)phenyl)-4-methylbenzamide], the remaining binding at 10 µM at KinomeScan kinase panel [1] is more than 30%; at KinomeScan kinase panel [2], 2.4%; on KinomeScan kinase panel [3], 0.95%; at KinomeScan kinase panel [4], more than 30%; on KinomeScan kinase panel [5], 0.1%; on KinomeScan kinase panel [6], more than 30%. For the same compound, the remaining binding at 10 µM on KinomeScan kinase panel [7] (PTK2, 10 µM) is more than 30%; at KinomeScan kinase panel [8], more than 30%; on KinomeScan kinase panel [9] it was 17%.

As to `CCN1CCN(Cc2ccc(NC(=O)c3ccc(C)c(C#Cc4cccnc4)c3)cc2C(F)(F)F)CC1` [XMD15-44], the remaining binding at 10 µM is more than 30% at KinomeScan kinase panel [1]; 0.3% on KinomeScan kinase panel [2]; 1.3% at KinomeScan kinase panel [3]; 6.2% on KinomeScan kinase panel [4]; 0.15% at KinomeScan kinase panel [5]; more than 30% at KinomeScan kinase panel [6]. For the same compound, the remaining binding at 10 µM at KinomeScan kinase panel [7] (FAK, 10 µM) is more than 30%; on KinomeScan kinase panel [8], more than 30%; on KinomeScan kinase panel [9] it was 1.6%.
